Experiment [1] addresses T1, Keap1 (321-609) Kelch domain / TAMRA-labeled NRF2 peptide (ETGE motif) (Homo sapiens, UniProt Q14145).
T1 construct: the Kelch domain (321-609) of Keap1 is used
Nature of the experiment: NRF2-Keap1 FP Assay. The experiment is classed as binding. The following applies: Keap1 (321-609) 20 nM, Tamra labeled peptide 8 nM. The text has this: One model for the NRF2-Keap1 interaction is through two binding sites in the Neh2 domain on NRF2. The two sites are referred to as the DLG binding motif (latch domain, uM affinity) and the ETGE binding motif (hinge domain, nM affinity). The Keap1 protein consists of an N-terminal region (NTR), a broad complex, tramtrack, and brick a' brac domain (BTB), an intervening region (IVR), a double glycine repeat domain (DGR or Kelch), and a C-terminal region. The DLG and ETGE motifs of NRF2's Neh2 domain bind to the Kelch domain of Keap1 at different affinities. In the Keap1 Kelch fluorescence polarization (FP) assay, a TAMRA-labeled 16mer peptide (AFFAQLQLDEETGEFL) containing the ETGE motif of NRF2 and the Kelch domain (321-609) of Keap1 is used. The assay determines if a compound interferes with the binding between Keap1 […] and the TAMRA-labeled peptide. Binding of TAMRA-labeled NRF2 peptide to Keap1 (321-609) results in a high FP signal. If a compound interferes with the binding between the peptide and the protein, it will cause the assay signal to decrease. Thus, assay signal is inversely proportional to binding inhibition.
100 nl of 100× compound dose response curves (serial 3-fold dilutions) in DMSO were stamped using an Echo liquid handling system (Labcyte) into 384-well low volume black assay plates (Greiner, #784076), with DMSO in columns 6 and 18. The top concentration of compound was located in columns 1 and 13. Keap1 (321-609) was diluted to 40 nM (2×) in 1× assay buffer (50 mM Tris, pH 8.0, 100 mM NaCl, 5 mM MgCl2, 1 mM DTT, 2 mM CHAPS, and 0.005% BSA) and 5 ul was added using a Multidrop Combi (Thermo Electron Corporation) equipped with a metal tip dispenser to all wells of the compound plate, except column 18. Column 18 received only 5 ul of assay buffer. Immediately, 5 uL of 16 nM (2×) of Tamra labeled peptide (AFFAQLQLDEETGEFL, 21st Century Biochemicals) was added to all wells of the plate. The plates were spun at 500 rpm for 1 min, incubated for 1 hr at room temperature, and read on an Analyst GT (Molecular Devices) equipped with excitation (530/25 nm) and emission (580/10 nm) filters designed for Tamra probes. A 561 nm dichroic mirror was also used in the Analyst. The final assay concentrations of Keap1l (321-609) and Tamra labeled peptide were 20 nM and 8 nM, respectively. Fluorescence measurements, represented as mP, were used in the transformation of the data. Compound activity was calculated based on percent inhibition, normalized against controls in the assay (Control 1 contains the Tamra peptide and Keap1 (321-609) together (0% response) and control 2 contains the Tamra peptide alone (100% response)). Data analysis was handled using the software package Abase XE (Surrey, United Kingdom. The % inhibition values were calculated by the equation:
100−(100*((compound response−average control 2)/(average control 1−average control2))).
For calculation of pIC50s, Abase XE used a four parameter equation.
IC50s<1 nM (+++++), IC50s 1 nM-10 nM (++++), IC50s 10-100 nM (+++), IC50s 100 nM-1 μM (++), IC50s 1-10 μM (+), IC50s>10 μM (−), or were not determined (ND).

For experiment [2], the system named is NQO1 specific enzyme activity in BEAS-2B cells. Description: BEAS-2B NQO1 MTT Assay. Type of experiment: cell-based. The following applies: Homo sapiens; NQO1 specific activity induction, BEAS-2B cells, 48 hours; read-out: EC50. The text has this: NAD(P)H:quinone oxidoreductase 1 (NQO1), also called DT diaphorase, is a homodimeric FAD-containing enzyme that catalyzes obligatory NAD(P)H-dependent two-electron reductions of quinones and protects cells against the toxic and neoplastic effects of free radicals and reactive oxygen species arising from one-electron reductions. The transcription of NQO1 is finely regulated by NRF2, and thus NQO1 activity is a good marker for NRF2 activation. On day one, frozen BEAS-2B cells (ATCC) were thawed in a water bath, counted, and re-suspended at a concentration of 250,000 cells/mL. Fifty microliters of cells were plated in 384 well black clear-bottomed plates. Plates were incubated at 37° C., 5% CO2 overnight. On day two, plates were centrifuged and 50 nL of compound or controls were added to the cells. Plates were then incubated at 37° C., 5% CO2 for 48 hours. On day four, medium was aspirated from the plate and crude cell lysates were made by adding 13 uL of 1× Cell Signaling Technologies lysis buffer with 1 Complete, Mini, EDTA-free Protease Inhibitor Tablet (Roche) for each 10 mL of lysis buffer. After lysis plates were incubated for 20 minutes at room temperature. Two microliters of lysate were removed for use in Cell Titer Glo assay (Promega) and MTT cocktail was prepared (Prochaska et. al. 1998) for measurement of NQO1 activity. Fifty microliters of MTT cocktail is added to each well, plate is centrifuged, and analyzed on an Envision plate reader (Perkin Elmer) using Absorbance 570 nm label for 30 minutes. Product formation was measured kinetically and the pEC50 of NQO1 specific activity induction was calculated by plotting the change in absorbance (Delta OD/min) versus the log of compound concentration followed by 3-parameter fitting. pEC50 is the negative log of the EC50.

Our source for the EC50 values is patent US20200071310A1, “N-ARYL PYRAZOLES AS NRF2 REGULATORS” (GLAXOSMITHKLINE INTELLECTUAL PROPERTY DEVELOPMENT LIMITED, priority 2016, published 2020).

The EC50 is the concentration that produces a half-maximal response.

T1 sequence (Q14145 321-609): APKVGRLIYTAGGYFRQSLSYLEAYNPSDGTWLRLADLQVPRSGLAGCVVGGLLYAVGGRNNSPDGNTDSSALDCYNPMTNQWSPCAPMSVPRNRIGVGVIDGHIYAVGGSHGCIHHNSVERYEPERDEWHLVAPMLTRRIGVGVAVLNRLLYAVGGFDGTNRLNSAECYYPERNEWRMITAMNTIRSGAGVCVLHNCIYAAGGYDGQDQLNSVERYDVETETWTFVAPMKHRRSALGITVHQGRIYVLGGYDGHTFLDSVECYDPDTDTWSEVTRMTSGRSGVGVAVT

As for `Cn1cc([C@@H]2C[C@H]2c2c(C(=O)O)cnn2-c2cccc(Cn3ccnc3CC3CCCCCC3)c2)nn1` (racemic) [Example 23], the EC50 in experiment [1] was in the range of 1 to 10 nM; in experiment [2], 100 to 1000 nM.
Consider `CCC1c2ccccc2OC(C)(C)CN1Cc1cccc(-n2ncc(C(=O)O)c2[C@@H]2C[C@H]2c2cn(C)nn2)c1` (stereo partly drawn) [Example 12], for which the EC50 in experiment [1] and in experiment [2] was 1000 to 10000 nM in each case.
As for `Cn1cc([C@@H]2C[C@H]2c2c(C(=O)O)cnn2-c2cccc(CN3Cc4ncccc4OC(C)(C)C3)c2)nn1` (racemic) [Example 9], the results for the EC50 in experiment [1] and in experiment [2] were 10 to 100 nM and 100 to 1000 nM, respectively.
Taken in the same sequence, the figures for `CN(Cc1cccc(-n2ncc(C(=O)O)c2[C@@H]2C[C@H]2c2cn(C)nn2)c1)S(=O)(=O)c1ccc(-c2ccccc2)cc1` (relative stereo) [Example 39, 5-((trans)-2-(1-methyl-1H-1,2,3-triazol-4-yl)cyclo-propyl)-1-(3-((N-methyl-[1,1′-biphenyl]-4-ylsulfonamido)-methyl)phenyl)-1H-pyrazole-4-carboxylic acid] were 10 to 100 nM and 1000 to 10000 nM.
Taken in the same sequence, the figures for `COc1ccc(Br)cc1S(=O)(=O)N(C)Cc1cccc(-n2ncc(C(=O)O)c2[C@@H]2C[C@H]2c2cn(C)nn2)c1` (racemic) [Example 43, 1-(3-((5-bromo-2-methoxy-N-methylphenylsulfonamido)methyl)phenyl)-5-((trans)-2-(1-methyl-1H-1,2,3-triazol-4-yl)cyclopropyl)-1H-pyrazole-4-carboxylic acid] were 100 to 1000 nM and 1000 to 10000 nM.
Consider `C[C@H]1Cc2ccccc2S(=O)(=O)N(Cc2cccc(-n3ncc(C(=O)O)c3[C@@H]3C[C@H]3c3cnn(C)c3)c2)C1` [Example 32, 1-(3-(((S)-4-methyl-1,1-dioxido-4,5-dihydrobenzo[f][1,2]thiazepin-2(3H)-yl)methyl)-phenyl)-5-(trans-2-(1-methyl-1H-pyrazol-4-yl)cyclopropyl)-1H-pyrazole-4-carboxylic acid], for which the EC50 in experiment [1] fell in the range of 100 to 1000 nM; in experiment [2] it was 1000 to 10000 nM.
Consider `CCCCCCN(Cc1cccc(-n2ncc(C(=O)O)c2[C@@H]2C[C@H]2c2cn(C)nn2)c1)S(=O)(=O)c1ccccc1C` (racemic) [Example 37, 1-(3-((N-hexyl-2-methylphenylsulfonamido)methyl)phenyl)-5-((trans)-2-(1-methyl-1H-1,2,3-triazol-4-yl)cyclo-propyl)-1H-pyrazole-4-carboxylic acid], for which the EC50 in experiment [1] and in experiment [2] was 10 to 100 nM in each case.
For the compound `CC[C@@H]1CN(Cc2cc(-n3ncc(C(=O)O)c3C3C[C@H]3c3cn(C)nn3)ccc2C)S(=O)(=O)c2ccccc2O1` (stereo partly drawn) [Example 25], the values for the EC50 in experiment [1] and in experiment [2] were 1 to 10 nM and 1000 to 10000 nM, respectively.
Taken in the same sequence, the figures for `Cn1cc([C@@H]2C[C@H]2c2c(C(=O)O)cnn2-c2cccc(CN3Cc4ccccc4OC(C)(C)C3)c2)nn1` (racemic) [Example 8] were 10 to 100 nM and 1000 to 10000 nM.
Taken in the same sequence, the figures for `CCCCCCN(Cc1cccc(-n2ncc(C(=O)O)c2[C@@H]2C[C@H]2c2cnn(C)c2)c1)S(=O)(=O)c1ccccc1C` (racemic) [Example 56] were 1000 to 10000 nM and 100 to 1000 nM.
On to `CC[C@@H]1CN(Cc2cccc(-n3ncc(C(=O)O)c3[C@@H]3C[C@H]3c3cn(CC(F)(F)F)nn3)c2)S(=O)(=O)c2ccccc2O1` [Example 29], for which the EC50 in experiment [1] is 1 to 10 nM; in experiment [2], 100 to 1000 nM.
For the compound `CCCCCCN(Cc1cccc(-n2ncc(C(=O)O)c2[C@@H]2C[C@H]2c2cn(C)nn2)c1)S(=O)(=O)c1cccc(-c2ccccc2)c1` (racemic) [Example 34, 1-(3-((N-hexyl-[1,1′-biphenyl]-3-ylsulfonamido)methyl)phenyl)-5-((trans)-2-(1-methyl-1H-1,2,3-triazol-4-yl)cyclopropyl)-1H-pyrazole-4-carboxylic acid], the values for the EC50 in experiment [1] and in experiment [2] were 1 to 10 nM and 10 to 100 nM, respectively.
Taken in the same sequence, the figures for `COc1ccccc1S(=O)(=O)N(Cc1cccc(-n2ncc(C(=O)O)c2[C@@H]2C[C@H]2c2cn(C)nn2)c1)C1CC1` (racemic) [Example 53, 1-(3-((N-cyclopropyl-2-methoxyphenylsulfonamido)methyl)phenyl)-5-((trans)-2-(1-methyl-1H-1,2,3-triazol-4-yl)cyclopropyl)-1H-pyrazole-4-carboxylic acid] were 1000 to 10000 nM and 100 to 1000 nM.
On the same counts, the results for `CC[C@@H]1Cc2ccccc2CN(Cc2cccc(-n3ncc(C(=O)O)c3[C@@H]3C[C@H]3c3cn(C)nn3)c2)C1` [Example 10] are 10 to 100 nM and 1000 to 10000 nM.
Taken in the same sequence, the figures for `CCCC[C@H]1Cc2ccc(C(F)(F)F)cc2S(=O)(=O)N(Cc2cccc(-n3ncc(C(=O)O)c3[C@@H]3C[C@H]3c3cn(C)nn3)c2)C1` [Example 21, 1-(3-(((S)-4-butyl-1,1-dioxido-8-(trifluoromethyl)-4,5-dihydrobenzo[f][1,2]thiazepin-2(3H)-yl)methyl)phenyl)-5-((1R,2R)-2-(1-methyl-1H-1,2,3-triazol-4-yl)cyclopropyl)-1H-pyrazole-4-carboxylic acid] were less than 1 nM and less than 1 nM.
On to `Cn1cc([C@@H]2C[C@H]2c2c(C(=O)O)cnn2-c2cccc(CN3Cc4ccccc4CC(C)(C)C3)c2)nn1` (racemic) [Example 7], for which the EC50 fell in the range of 10 to 100 nM in experiment [1] and 100 to 1000 nM in experiment [2].
On the same counts, the results for `CCCN(Cc1cccc(-n2ncc(C(=O)O)c2[C@@H]2C[C@H]2c2cn(C)nn2)c1)S(=O)(=O)c1ccccc1C` (racemic) [Example 50, 5-((trans)-2-(1-methyl-1H-1,2,3-triazol-4-yl)cyclopropyl)-1-(3-((2-methyl-N-propylphenylsulfonamido)methyl)phenyl)-1H-pyrazole-4-carboxylic acid] are 100 to 1000 nM and 10 to 100 nM.
On the same counts, the results for `CN(Cc1cccc(-n2ncc(C(=O)O)c2[C@@H]2C[C@H]2c2cn(C)nn2)c1)S(=O)(=O)c1c(Cl)cccc1C(F)(F)F` (racemic) [Example 41, 1-(3-((2-chloro-N-methyl-6-(trifluoro-methyl)phenyl-sulfonamido)-methyl)phenyl)-5-((trans)-2-(1-methyl-1H-1,2,3-triazol-4-yl)cyclo-propyl)-1H-pyrazole-4-carboxylic acid] are 100 to 1000 nM and 1000 to 10000 nM.
